Measurements reported in PubChem BioAssay (NCI).
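In this assay, cells in 96-well plates receive the compound at five concentrations for 48 hours. Endpoints are linearly interpolated between the surrounding concentrations. GI50 is the concentration that inhibits growth by half. At the TGI there is no net growth.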

test system: MDA-MB-468 breast; assay: growth of human tumour cells (NCI), 48 h

Structure (SMILES) | GI50 [µM] | TGI [µM]
Cn1cc(-c2csc(-c3c[nH]c4ccc(F)cc34)n2)c2cnccc21 | 1.45 | 3.19
C=CCCCCOc1ccccc1-c1cnc(OCCCCC=C)n1C | 1.93 | 7.86
CS(=O)(=O)CCNCc1nc(-c2ccc3ncnc(Nc4ccc(OCc5cccc(C(F)(F)F)c5)cc4)c3c2)cs1 | 1.55 | > 20.9
Cn1cc(C2=C(c3cn(CCCCO)c4ccccc34)C(=O)NC2=O)c2ccccc21 | 12 | > 25
COc1cc(F)ccc1-c1ncnc(Nc2cccc(CS(C)(=N)=O)c2)n1 (centres undefined) | 0.895 | 5.56
COc1cc(Cn2c(-c3ccccc3)c(Cl)c3c2-c2oncc2CC3)cc(OC)c1 | 2.49 | 7.69
Cc1ncc(C(=O)Nc2ccc(CN3CCN(C)CC3)c(C(F)(F)F)c2)cc1C#Cc1cnc(N)c2ccncc12 | 1.87 | 4.4
COc1ccc(C(=O)/C=C/c2cc(-c3cc(OC)c(OC)c(OC)c3)n[nH]2)cc1OC | 0.759 | 2.18
CC(=O)O[C@@H]1C[C@H]2O[C@@H]3C=C(C)CC[C@]3(C)[C@]1(C)[C@]21CO1 | 4.92 | 18.2
C[C@@H]1CC[C@@H]2[C@@H]1[C@H](OC(=O)/C=C/c1ccccc1)[C@]1(C3CCCCC3)C[C@@H](OC(=O)CO)[C@@]2(C)O1 | 3.33 | 11.1
CCCN1C(=O)N(CCC)C2C1NC(=S)N2/N=C/C=C/c1ccccc1OC (centres undefined) | 0.372 | 17
COc1ccc2[nH]cc(C3(c4c[nH]c5ccc(OC)cc45)C(=O)Nc4ccc(F)cc43)c2c1 | 2.07 | 5.67
Cc1cc2nc3c4cc(Cl)ccc4n(CC(=S)NCCN(C)C)c3nc2cc1C | 1.95 | 3.96
O=C(N[C@@H](c1ccc(Cl)c(Cl)c1)C1CNC1)c1ccc2cnccc2c1 | 0.0617 | 0.638
COc1cc(-c2cc(-c3cc4c([nH]c5ccccc54)c(-c4cc(OC)c(OC)c(OC)c4)n3)cc(-c3ccccc3)n2)cc(OC)c1OC | 1.73 | 4.61
O=C1OCC2=C1C(c1cccc(Br)c1)c1cc3c(cc1N2CCO)CCC3 (centres undefined) | 0.0436 | 1.14
O=C(c1ccccc1)c1cc2ccccc2o1 | 48.2 | > 100
C=C(C)[C@@H]1CC[C@]2(C)[C@H](CC=C3[C@@H]4CC(C)(C)CC[C@]4(C(N)=O)CC[C@]32C)[C@@]1(C)CCC#N | 2.41 | 8.42
CCOC(=O)C(Cc1ccc(CCCC(=O)NCCC(=O)Nc2ccc3nc(C)sc3c2)cc1)C(=O)OCC | 17.6 | 58.1

Structure (SMILES) | GI50 [µM] | TGI [µM]
C#C[C@]1(O)CCC2C3CCc4cc(O)ccc4C3CC[C@@]21C (some centres undefined) | 1.84 | 6.2
COc1c(OC[C@H](O)CN2CCOCC2)ccc2c3n(c(=NC(=O)c4cccnc4C)nc12)CCN3 | 0.143 | 1.95
CCOC(=O)Nc1ccc(-c2nc(-c3cccc(OCCN4CCOCC4)c3)c(-c3ccnc(Br)c3)[nH]2)cc1 | 1.68 | 3.66
CC(=O)OC12C=CC(=O)N1c1ccccc1C(=O)O2 (centres undefined) | > 100 | > 100
Cc1ccc(NC(=O)CC2CC2)cc1-c1ccc(C(=O)NCC2CC2)cc1 | > 15 | > 25
Nc1c(C(=O)Nc2ccncc2)sc2nc3c(cc12)CCCCCCCC3 | 0.966 | 1.76
O=C(Nc1ccncc1)C(=O)c1cn(S(=O)(=O)c2ccc(F)cc2)c2ccccc12 | 1.67 | > 100
O=C(CC1(O)C(=O)N(Cc2ccccc2)c2ccc(F)cc21)c1ccc(C(=O)NCC2CCC3(CC2)OOC2(CCCCC2)OO3)cc1 (centres undefined) | 1.35 | 3.39
COc1cc2c(c(OC)c1OC)-c1ccc(SC)c(=O)cc1C(NC=O)CC2 (centres undefined) | < 0.01 | > 100
[Cl][Hg][c]1cc[c]([Hg][Cl])o1 | 1.58 | 3.32
CNCC#Cc1c(F)ccc2c1/C(=C/c1[nH]ccc1OC)C(=O)N2 | 0.279 | 0.858
CC[C@H]1[C@@H]2C=C[C@@H]3[C@H]4C/C=C\C(=O)NCCC[C@@H]5NC(=O)/C(=C(O)/C=C/[C@@H]4C[C@@H]3[C@H]2C[C@H]1C)C5=O | 2.02 | 5.16
Cc1nn(-c2ccc(Cl)cc2)c2nc3c(nc12)C(=O)c1ccccc1-3 | 58.5 | > 100
COc1ccc(-c2nn(-c3ccc(NC(=O)c4ccc(Cl)c(Cl)c4)cc3)cc2-c2ccncc2)cc1Cl | 3.15 | > 50
CC(C)Oc1ccc2cc(-c3nn(CC4CCNCC4)c4ncnc(N)c34)ccc2c1 | 6.9 | 21
CCSc1ncnc2c1ncn2C1OC(CO)C(O)C1O (centres undefined) | 0.583 | 17.6
CN1C(=O)N(C)C2C1NN=c1s/c(=C\c3ccc(Cl)cc3Cl)c(=O)n12 (centres undefined) | 0.183 | 33.4
COc1cccc2c1C(=O)c1c(O)c3c(c(O)c1C2=O)C[C@](O)(C(=O)CO)C[C@H]3O[C@@H]1C[C@@H](NC(=O)CCCCCN(C)C2(c3ccc(F)cc3)CC3CCC2C3)[C@H](O)[C@@H](C)O1 (some centres undefined) | 5.87 | 13.5
